Patent publication US12274781B2, “Use of enzyme-modified isoquercitrin” (SAN-EI GEN F.F.I., INC., priority 2015, dated 2025)
“Also recorded” adds a separate entry of the source.

How the values were obtained:
saliva secretion in mice = settings: cited from earlier work
[1] = system: saliva secretion in healthy persons; assay: Salivation-promoting effect of aqueous solutions, non-thickened or thickened with xanthan gum (Experimental Examples 1 and 2); format: in vivo, human; settings: for Amount of salivation (standardized with water): average of 3 panelists, water = 1; for Salivation-promoting (saliva secretion-increasing) effect, in words: Experimental Example 1, aqueous solutions, equimolar in terms of rutin, humans; for Enhancement of the salivation-promoting effect by incorporating a thickening polysaccharide (thickening), in words: Experimental Example 2, 150 μM, 0.1 mass % xanthan gum
Protocol: Using 3 healthy persons (males, average age: 31.3 years old) as panelists, the salivation-promoting effect of the test samples prepared above was evaluated. Persons whose circadian variation of saliva secretion is relatively similar were selected as the panelists from candidates.
The evaluation was performed using 15 g of each test sample per test according to the following method. As a blank, a test was performed in the same manner using 15 g of water in place of the test samples.
(i) After 15 g of each sample is placed in the mouth and retained for 5 seconds, the sample is swallowed at one time.
(ii) After 5 seconds, absorbent cotton (37.5 mm×37.5 mm×4 mm) is placed under (the back of) the tongue, and retained for 2 minutes.
(iii) The absorbent cotton is removed from under the tongue, and the weight (g) of the cotton is measured. This weight is compared with the weight of the absorbent cotton before being placed in the mouth to calculate the difference in weight.
The above test was performed using the same test sample twice per panelist, and the average was calculated. Based on the average of each panelist, the average and standard deviation of all of the panelists were calculated.
Table 2 and FIG. 1 show the evaluation results (the average of 3 panelists). The results are shown as numerical values (relative values) standardized by setting the saliva secretion amount obtained by using the blank (water) as 1.
Test substances (enzymatically modified isoquercitrin preparation, αG rutin, and quercetin) were dissolved in drinking water, and adjusted so that the rutin content (molarity) of the structure of each compound was 150 μM (see Table 1). Further, xanthan gum was added to the aqueous solutions, so that the content thereof was 0.1 mass %, thus thickening the solutions. For comparison, xanthan gum-free aqueous solutions (an aqueous enzymatically modified isoquercitrin solution, an aqueous αG rutin solution, an aqueous quercetin solution) at a concentration of 150 μM in terms of rutin were prepared in the same manner as in Experimental Example 1.
The salivation-promoting effect of each test sample prepared above was evaluated in the same manner as in Experimental Example 1 (the panelists were also the same). Table 3 and FIG. 2 show the evaluation results (the average of 3 panelists).

[2] = 75 μM aqueous solution (in terms of rutin or molarity of quercetin), 15 g
[3] = 150 μM aqueous solution (in terms of rutin or molarity of quercetin), 15 g
[4] = 750 μM aqueous solution (in terms of rutin or molarity of quercetin), 15 g
[5] = 3750 μM aqueous solution (in terms of rutin or molarity of quercetin), 15 g
[6] = Non-thickened: 150 μM, xanthan gum-free, viscosity 1 mPa·s
[7] = Thickened: 150 μM with 0.1 mass % xanthan gum, viscosity 20 mPa·s

Row | Compound | Effect on hyposalivation (saliva secretion in mice; model mice having disturbance of salivary secretion created by radiation exposure) | Effect on saliva secretion (saliva secretion in mice; normal mice) | Amount of salivation (standardized with water) [1, 2] | Amount of salivation (standardized with water) [1, 3] | Amount of salivation (standardized with water) [1, 4] | Amount of salivation (standardized with water) [1, 5] | Salivation-promoting (saliva secretion-increasing) effect, in words [1] | Enhancement of the salivation-promoting effect by incorporating a thickening polysaccharide (thickening), in words [1] | Amount of salivation (standardized with water) [1, 6] | Amount of salivation (standardized with water) [1, 7] | Salivation-promoting (saliva secretion-increasing) effect, in words ([1]; listed as α-glucosylrutin)
1 | O=c1c(O)c(-c2ccc(O)c(O)c2)oc2cc(O)cc(O)c12 [quercetin] | reduces hyposalivation | enhances saliva secretion | 0.989 | 0.826 | 1.032 | 1.132 | not observed; also recorded: no salivation-promoting effect | not observed | 0.826 | 0.868 | 
2 | α-glucosylrutin [αG rutin] |  |  | 0.910 | 0.841 | 0.872 | 0.932 | not observed | not observed | 0.841 | 0.719 | no salivation-promoting effect
